# PubChem BioAssay AID1259407 (Chemical Carcinogenesis Research Information System (CCRIS), 2018)
# Calls of active or inactive are those of the source. How the calls were made is not given here.
# Test system: CCRIS mutagenicity, Ames/micronucleus/aberration tests
# Test: CCRIS mutagenicity studies
# [1] = Test System: AMES SALMONELLA TYPHIMURIUM, Strain/Indicator: TA100, Metabolic Activation: NONE, Method: STANDARD PLATE
smiles,measurement,setting,value
O=[N+]([O-])c1cc(Cl)ccc1Cl,mutagenic call,"End Point: IN VITRO CHROMOSOMAL ABERRATIONS, Test System: CHL CELLS, Metabolic Activation: RAT, LIVER, S-9, SODIUM PHENOBARBITAL AND 5,6-BENZOFLAVONE",active; positive (structural changes); authors report equivocal results for ploidy chang
same,mutagenic call,"Test System: AMES SALMONELLA TYPHIMURIUM, Strain/Indicator: TA98, Metabolic Activation: NONE, Method: PREINCUBATION",inactive; negative
same,mutagenic call,"Test System: AMES SALMONELLA TYPHIMURIUM, Strain/Indicator: TA98, Metabolic Activation: RAT LIVER S-9, PHENOBARBITAL AND BETA-NAPHTHOFLAVONE, Method: PREINCUBATION",inactive; negative
same,mutagenic call,"Test System: AMES SALMONELLA TYPHIMURIUM, Strain/Indicator: TA98, Metabolic Activation: RAT, LIVER, S-9, KANECHLOR 500, Method: PREINCUBATION",inactive; negative
same,mutagenic call,[1],inactive; negative
same,mutagenic call,"Test System: AMES SALMONELLA TYPHIMURIUM, Strain/Indicator: TA100, Metabolic Activation: RAT LIVER S-9, PHENOBARBITAL AND BETA-NAPHTHOFLAVONE, Method: PREINCUBATION",active; positive
same,mutagenic call,"Test System: AMES SALMONELLA TYPHIMURIUM, Strain/Indicator: TA100, Metabolic Activation: RAT, LIVER, S-9, KANECHLOR 500, Method: PREINCUBATION",active; positive
same,mutagenic call,"Test System: AMES SALMONELLA TYPHIMURIUM, Strain/Indicator: TA1535, Metabolic Activation: NONE, Method: PREINCUBATION",inactive; negative
same,mutagenic call,"Test System: AMES SALMONELLA TYPHIMURIUM, Strain/Indicator: TA1535, Metabolic Activation: RAT LIVER S-9, PHENOBARBITAL AND BETA-NAPHTHOFLAVONE, Method: PREINCUBATION",inactive; negative
same,mutagenic call,"Test System: AMES SALMONELLA TYPHIMURIUM, Strain/Indicator: TA1537, Metabolic Activation: NONE, Method: PREINCUBATION",inactive; negative
same,mutagenic call,"Test System: AMES SALMONELLA TYPHIMURIUM, Strain/Indicator: TA1537, Metabolic Activation: RAT LIVER S-9, PHENOBARBITAL AND BETA-NAPHTHOFLAVONE, Method: PREINCUBATION",inactive; negative
same,mutagenic call,"Test System: AMES SALMONELLA TYPHIMURIUM, Strain/Indicator: TA1538, Metabolic Activation: NONE, Method: PREINCUBATION",inactive; negative
same,mutagenic call,"Test System: AMES SALMONELLA TYPHIMURIUM, Strain/Indicator: TA1538, Metabolic Activation: RAT LIVER S-9, PHENOBARBITAL AND BETA-NAPHTHOFLAVONE, Method: PREINCUBATION",inactive; negative
same,mutagenic call,"Test System: E.COLI, Strain/Indicator: WP2UVRA, Metabolic Activation: NONE, Method: PREINCUBATION",inactive; negative
same,mutagenic call,"Test System: E.COLI, Strain/Indicator: WP2UVRA, Metabolic Activation: RAT LIVER S-9, PHENOBARBITAL AND BETA-NAPHTHOFLAVONE, Method: PREINCUBATION",inactive; negative
CN(N=O)C(=O)Nc1ccc(Cl)cc1,mutagenic call,"End Point: IN VITRO CHROMOSOMAL ABERRATIONS, Test System: CHINESE HAMSTER V79-E CELLS, Metabolic Activation: NONE",active; weakly positive
O=C(/C=C/c1ccc(O)cc1)c1ccc(O)cc1O,mutagenic call,"Test System: Ames Salmonella typhimurium, Strain/Indicator: TA102, Metabolic Activation: None, Method: Preincubation",inactive; negative
same,mutagenic call,"Test System: Ames Salmonella typhimurium, Strain/Indicator: TA102, Metabolic Activation: Rat, Liver, S-9, Aroclor 1254 in 0.154 M KCl, Method: Preincubation",active; positive
CCc1ccc(C)cc1,mutagenic call,"Test System: AMES SALMONELLA TYPHIMURIUM, Strain/Indicator: TA97A, Metabolic Activation: NONE, Method: STANDARD PLATE",inactive; negative
same,mutagenic call,"Test System: AMES SALMONELLA TYPHIMURIUM, Strain/Indicator: TA97A, Metabolic Activation: RAT LIVER S-9, AROCLOR 1254, Method: STANDARD PLATE",inactive; negative
same,mutagenic call,"Test System: AMES SALMONELLA TYPHIMURIUM, Strain/Indicator: TA98, Metabolic Activation: NONE, Method: STANDARD PLATE",inactive; negative
same,mutagenic call,"Test System: AMES SALMONELLA TYPHIMURIUM, Strain/Indicator: TA98, Metabolic Activation: RAT LIVER S-9, AROCLOR 1254, Method: STANDARD PLATE",inactive; negative
same,mutagenic call,[1],inactive; negative
same,mutagenic call,"Test System: AMES SALMONELLA TYPHIMURIUM, Strain/Indicator: TA100, Metabolic Activation: RAT LIVER S-9, AROCLOR 1254, Method: STANDARD PLATE",inactive; negative
same,mutagenic call,"Test System: AMES SALMONELLA TYPHIMURIUM, Strain/Indicator: TA102, Metabolic Activation: NONE, Method: STANDARD PLATE",inactive; negative
same,mutagenic call,"Test System: AMES SALMONELLA TYPHIMURIUM, Strain/Indicator: TA102, Metabolic Activation: RAT LIVER S-9, AROCLOR 1254, Method: STANDARD PLATE",inactive; negative
